From PubChem BioAssay AID256 (DTP/NCI, 2004) come the findings set out here.

The experiment relates to CD2F1 mice, L1210 leukemia ip, survival T/C. As to the kind of experiment: NCI In Vivo Anticancer Drug Screen. Data for tumor model L1210 Leukemia (intraperitoneal) in CD2F1 (CDF1) mice. As to conditions: higher = longer survival. The method, boiled down:
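Vehicle-treated tumor-bearing mice served as controls (C) for compound-treated mice (T). Reported figure is T divided by C.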

The mark [1] stands for this setting: endpoint: mean survival time, dose: 50.0 mg/kg/injection, schedule: Q04DX003 (ip), vehicle: saline.
Setting [2] is: endpoint: mean survival time, dose: 100.0 mg/kg/injection, schedule: Q01DX009 (ip), vehicle: saline with Tween-80.
Setting [3] is: endpoint: mean survival time, dose: 100.0 mg/kg/injection, schedule: Q04DX003 (ip), vehicle: saline with Tween-80.
Where [4] appears, read: endpoint: mean survival time, dose: 200.0 mg/kg/injection, schedule: Q01DX009 (ip), vehicle: saline with Tween-80.
Where [5] appears, read: endpoint: mean survival time, dose: 200.0 mg/kg/injection, schedule: Q04DX003 (ip), vehicle: saline with Tween-80.
[6] abbreviates: endpoint: mean survival time, dose: 400.0 mg/kg/injection, schedule: Q01DX009 (ip), vehicle: saline with Tween-80.
Setting [7] is: endpoint: mean survival time, dose: 400.0 mg/kg/injection, schedule: Q04DX003 (ip), vehicle: saline with Tween-80.
[8] abbreviates: endpoint: mean survival time, dose: 75.0 mg/kg/injection, schedule: Q01DX001 (ip), vehicle: saline.
[9] abbreviates: endpoint: mean survival time, dose: 150.0 mg/kg/injection, schedule: Q01DX001 (ip), vehicle: saline.
The mark [10] stands for this setting: endpoint: mean survival time, dose: 100.0 mg/kg/injection, schedule: Q04DX003 (ip), vehicle: saline.
Setting [11] is: endpoint: mean survival time, dose: 200.0 mg/kg/injection, schedule: Q04DX003 (ip), vehicle: saline.
The mark [12] stands for this setting: endpoint: mean survival time, dose: 100.0 mg/kg/injection, schedule: Q01DX001 (ip), vehicle: saline with Tween-80.
[13] abbreviates: endpoint: mean survival time, dose: 200.0 mg/kg/injection, schedule: Q01DX001 (ip), vehicle: saline with Tween-80.
Where [14] appears, read: endpoint: mean survival time, dose: 400.0 mg/kg/injection, schedule: Q01DX001 (ip), vehicle: saline with Tween-80.

“And” between values parts separate entries of the source, which are not always exact repeats. Identical values can stand only once. Toxic doses and inconclusive results are not listed.

Take `CC1(C)CC(C)(OC(=O)c2ccccc2)N=N1` (stereo not drawn): the T/C reads like this: (endpoint: mean survival time, dose: 25.0 mg/kg/injection, schedule: Q01DX009 (ip), vehicle: Klucel (hydroxypropylcellulose) (HPC)) 97 % of control; (endpoint: mean survival time, dose: 50.0 mg/kg/injection, schedule: Q01DX009 (ip), vehicle: Klucel (hydroxypropylcellulose) (HPC)) 94 % of control; (endpoint: mean survival time, dose: 100.0 mg/kg/injection, schedule: Q01DX009 (ip), vehicle: Klucel (hydroxypropylcellulose) (HPC)) 101 % of control; (endpoint: mean survival time, dose: 200.0 mg/kg/injection, schedule: Q01DX009 (ip), vehicle: Klucel (hydroxypropylcellulose) (HPC)) 100 % of control; (endpoint: mean survival time, dose: 400.0 mg/kg/injection, schedule: Q01DX009 (ip), vehicle: Klucel (hydroxypropylcellulose) (HPC)) 101 % of control.
With `[Cl][Pt+2][Cl].[NH-]CCO.[NH-]CCO`, the T/C is 102 % of control (endpoint: mean survival time, dose: 12.5 mg/kg/injection, schedule: Q04DX003 (ip), vehicle: saline) and 118 % of control under setting [1].
For the compound `CCOC(=O)C1CC(=O)C(C(=O)OCC)CC1=O` (stereo not drawn), the T/C runs as follows: under setting [2], 100 % of control; (endpoint: mean survival time, dose: 100.0 mg/kg/injection, schedule: Q04DX002 (ip), vehicle: saline with Tween-80) 107 % of control; under setting [3], 100 % of control; under setting [4], 97 % of control; (endpoint: mean survival time, dose: 200.0 mg/kg/injection, schedule: Q04DX002 (ip), vehicle: saline with Tween-80) 98 % of control; under setting [5], 93 % of control. Moreover, the T/C runs as follows: under setting [6], 97 % of control; (endpoint: mean survival time, dose: 400.0 mg/kg/injection, schedule: Q04DX002 (ip), vehicle: saline with Tween-80) 102 % of control; under setting [7], 98 % of control.
In the case of `CO/N=C(/c1ccccc1)c1cc[n+](C)cc1`, the T/C runs as follows: (endpoint: mean survival time, dose: 37.5 mg/kg/injection, schedule: Q04DX003 (ip), vehicle: saline) 100 % of control; under setting [8], 95 % of control; (endpoint: mean survival time, dose: 75.0 mg/kg/injection, schedule: Q04DX003 (ip), vehicle: saline) 96 % of control; under setting [9], 100 % of control.
Turning to `O=C1/C(=C/c2ccccc2)Cc2ccccc21`, the T/C by setting is: under setting [2], 94 % of control; under setting [4], 91 % of control; under setting [6], 89 % of control.
In the case of `CCC(C)CNCCO` (stereo not drawn), the T/C under setting [10] was 100 % of control and the T/C under setting [11] is 95 % of control.
`O=C(Oc1ccccc1)c1ccccc1O`: the T/C reads like this: (endpoint: mean survival time, dose: 25.0 mg/kg/injection, schedule: Q01DX009 (ip), vehicle: saline with Tween-80) 105 % of control; (endpoint: mean survival time, dose: 50.0 mg/kg/injection, schedule: Q01DX009 (ip), vehicle: saline with Tween-80) 109 % of control; under setting [12], 101 % of control; under setting [2], 105 % of control; under setting [13], 89 % of control; under setting [14], 95 % of control.
Take `BrC1C(Br)C2C3C=CC(c4ccccc43)C12` (stereo not drawn): the T/C is 91 % of control under setting [2]; 98 % of control under setting [3]; 94 % of control under setting [4]; 98 % of control under setting [5]; 89 % of control under setting [6]; 96 % of control under setting [7].
`O=C(COc1cc(Cl)c(Cl)cc1Cl)OCCOc1cc(Cl)c(Cl)cc1Cl`: the T/C is 93 % of control (endpoint: mean survival time, dose: 15.0 mg/kg/injection, schedule: Q04DX003 (ip), vehicle: saline); 89 % of control (endpoint: mean survival time, dose: 30.0 mg/kg/injection, schedule: Q04DX003 (ip), vehicle: saline); 86 % of control (endpoint: mean survival time, dose: 200.0 mg/kg/injection, schedule: Q01DX001 (ip), vehicle: saline).
With `CNC(=O)Nc1nc2ccc([N+](=O)[O-])cc2[nH]1`, the T/C was 109 % of control under setting [3], 105 % of control under setting [5] and 105 % of control under setting [7].
Consider `O=C1OC(=O)C2C3C=CC(C3)C12` (stereo not drawn), for which the T/C is 95 % of control (endpoint: mean survival time, dose: 12.5 mg/kg/injection, schedule: Q04DX003 (ip), vehicle: saline with Tween-80); 101 % of control (endpoint: mean survival time, dose: 25.0 mg/kg/injection, schedule: Q04DX003 (ip), vehicle: saline with Tween-80); 95 % of control (endpoint: mean survival time, dose: 50.0 mg/kg/injection, schedule: Q04DX003 (ip), vehicle: saline with Tween-80); 98 % of control under setting [12]; 102 % of control (endpoint: mean survival time, dose: 100.0 mg/kg/injection, schedule: Q01DX009 (ip), vehicle: saline); 101 % of control under setting [3]. In addition, the T/C reads like this: under setting [13], 100 % of control; (endpoint: mean survival time, dose: 200.0 mg/kg/injection, schedule: Q01DX009 (ip), vehicle: saline) 96 % of control; under setting [5], 102 % of control; under setting [14], 93 % of control; (endpoint: mean survival time, dose: 400.0 mg/kg/injection, schedule: Q01DX009 (ip), vehicle: saline) 90 % of control; under setting [7], 102 % of control.
On to `CC[C@@H](C)[C@@H]1NC(=O)C(NC(=O)C(CC(C)C)N(C)C(=O)C2CCCN2C(=O)C(C)O)C(C)OC(=O)C(Cc2ccc(OC)cc2)N(C)C(=O)C2CCCN2C(=O)C(CC(C)C)NC(=O)C(C)C(=O)C(C(C)C)OC(=O)C[C@H]1O` (stereo partly drawn), for which the T/C is 104 % of control (endpoint: median survival time, dose: 10.0 micrograms/kg/injection, schedule: Q01DX009 (ip), vehicle: distilled water + alcohol); 111 % of control (endpoint: median survival time, dose: 25.0 micrograms/kg/injection, schedule: Q01DX009 (ip), vehicle: distilled water + alcohol); 104 % of control (endpoint: median survival time, dose: 40.0 micrograms/kg/injection, schedule: Q01DX009 (ip), vehicle: distilled water + alcohol); 111 % of control (endpoint: median survival time, dose: 50.0 micrograms/kg/injection, schedule: Q01DX009 (ip), vehicle: distilled water + alcohol); 112 % of control (endpoint: median survival time, dose: 80.0 micrograms/kg/injection, schedule: Q01DX009 (ip), vehicle: distilled water + alcohol); 121 % of control (endpoint: median survival time, dose: 100.0 micrograms/kg/injection, schedule: Q01DX009 (ip), vehicle: distilled water + alcohol). Besides, the T/C (endpoint: median survival time, dose: 160.0 micrograms/kg/injection, schedule: Q01DX009 (ip), vehicle: distilled water + alcohol) is 112 % of control.
Regarding `CC(=O)Nc1onc(C)c1NC(C)=O`, the T/C is, setting by setting: under setting [2], 95 % of control; under setting [4], 101 % of control; under setting [6], 95 % of control.
As to `COC(c1ccccc1)C(c1ccccc1)[N+]1(C)CCCCC1` (stereo not drawn), the T/C was 97 % of control under setting [8]; 113 % of control under setting [9]; 97 % of control (endpoint: mean survival time, dose: 300.0 mg/kg/injection, schedule: Q01DX001 (ip), vehicle: saline).
As to `CCCC/C=N/NC(=O)c1ccc[n+](C)c1`, the T/C was 102 % of control under setting [10]; 98 % of control under setting [11]; 105 % of control (endpoint: mean survival time, dose: 400.0 mg/kg/injection, schedule: Q04DX003 (ip), vehicle: saline).
Regarding `NS(=O)(=O)Cc1ccccc1`, the T/C (endpoint: mean survival time, dose: 25.0 mg/kg/injection, schedule: Q04DX003 (ip), vehicle: saline) was 107 % of control; the T/C under setting [1] is 117 % of control; the T/C under setting [10] is 90 % of control and 92 % of control.
On to `O=C(O)[C@H](Cc1ccccc1)N1C(=O)c2ccccc2C1=O`, for which the T/C reads like this: (endpoint: median survival time, dose: 75.0 mg/kg/injection, schedule: Q01DX005 (ip), vehicle: DMSO) 96 % of control; (endpoint: median survival time, dose: 150.0 mg/kg/injection, schedule: Q01DX005 (ip), vehicle: DMSO) 93 % of control; (endpoint: median survival time, dose: 300.0 mg/kg/injection, schedule: Q01DX005 (ip), vehicle: DMSO) 96 % of control; (endpoint: median survival time, dose: 600.0 mg/kg/injection, schedule: Q01DX005 (ip), vehicle: DMSO) 98 % of control.
As for `CCOC(=O)Nc1ccccc1[N+](=O)[O-]`, the T/C is, setting by setting: (endpoint: mean survival time, dose: 100.0 mg/kg/injection, schedule: Q04DX003 (ip), vehicle: other) 98 % of control; (endpoint: mean survival time, dose: 200.0 mg/kg/injection, schedule: Q04DX003 (ip), vehicle: other) 102 % of control; (endpoint: mean survival time, dose: 400.0 mg/kg/injection, schedule: Q04DX003 (ip), vehicle: other) 98 % of control.
In the case of `O=C(O)C(O)C(O)C(=O)O.[NH-]C1CCCCC1[NH-].[Pt+2]` (stereo not drawn), the T/C by setting is: (endpoint: mean survival time, dose: 1.56 mg/kg/injection, schedule: Q04DX003 (ip), vehicle: water) 115 % of control; (endpoint: mean survival time, dose: 12.5 mg/kg/injection, schedule: Q04DX003 (ip), vehicle: water) 367 % of control; (endpoint: mean survival time, dose: 25.0 mg/kg/injection, schedule: Q04DX003 (ip), vehicle: water) 266 % of control; (endpoint: mean survival time, dose: 50.0 mg/kg/injection, schedule: Q04DX003 (ip), vehicle: water) 201 % of control.
For the compound `Cc1ccc(Cl)cc1NS(=O)(=O)c1cccc([N+](=O)[O-])c1`, the T/C under setting [3] was 98 % of control, the T/C under setting [5] was 106 % of control and the T/C under setting [7] is 88 % of control.
